# Active and inactive are the calls of the source.
# Tests used:
# [1] = target: Serine/threonine-protein kinase PLK3 (Homo sapiens, UniProt Q9H4B4); format: functional
# [2] = target: Non-receptor tyrosine-protein kinase TYK2 (Homo sapiens, UniProt P29597); format: functional
# [3] = target: Proto-oncogene tyrosine-protein kinase Src (Homo sapiens, UniProt P12931); format: functional;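 note: SRC entry within a kinome-wide kinase profiling panel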
# [4] = target: Inhibitor of nuclear factor kappa-B kinase subunit alpha (Homo sapiens, UniProt O15111); format: functional
# [5] = target: Cyclin-dependent kinase 1 (Homo sapiens, UniProt P06493); format: functional;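 note: Kinome-wide panel profiling, with the target listed as panel member CDC2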
# [6] = target: 3-phosphoinositide-dependent protein kinase 1 (Homo sapiens, UniProt O15530); format: functional;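 note: value comes from the Navigating the Kinome panel, PDPK1 member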
# CAAX prenyl protease 2 = target: T1, CAAX prenyl protease 2 (Saccharomyces cerevisiae S288c, UniProt Q03530); format: biochemical
# T1 sequence (Q03530 whole entry): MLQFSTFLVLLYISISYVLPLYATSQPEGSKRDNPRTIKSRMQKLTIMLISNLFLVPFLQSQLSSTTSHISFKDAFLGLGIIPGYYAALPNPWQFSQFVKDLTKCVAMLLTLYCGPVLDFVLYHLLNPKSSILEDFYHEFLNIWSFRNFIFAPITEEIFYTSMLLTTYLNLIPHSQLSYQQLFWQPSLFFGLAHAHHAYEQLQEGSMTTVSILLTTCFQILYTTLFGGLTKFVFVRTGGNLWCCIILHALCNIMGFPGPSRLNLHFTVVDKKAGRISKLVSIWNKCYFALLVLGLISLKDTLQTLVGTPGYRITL
# Insulin-degrading enzyme = target: T2, Insulin-degrading enzyme (Homo sapiens, UniProt P14735); assay: activators of endogenous IDE in HEK cells, dose response, cell-based, fluorescence polarization (AID 588439); format: functional
# T2 sequence (P14735 whole entry): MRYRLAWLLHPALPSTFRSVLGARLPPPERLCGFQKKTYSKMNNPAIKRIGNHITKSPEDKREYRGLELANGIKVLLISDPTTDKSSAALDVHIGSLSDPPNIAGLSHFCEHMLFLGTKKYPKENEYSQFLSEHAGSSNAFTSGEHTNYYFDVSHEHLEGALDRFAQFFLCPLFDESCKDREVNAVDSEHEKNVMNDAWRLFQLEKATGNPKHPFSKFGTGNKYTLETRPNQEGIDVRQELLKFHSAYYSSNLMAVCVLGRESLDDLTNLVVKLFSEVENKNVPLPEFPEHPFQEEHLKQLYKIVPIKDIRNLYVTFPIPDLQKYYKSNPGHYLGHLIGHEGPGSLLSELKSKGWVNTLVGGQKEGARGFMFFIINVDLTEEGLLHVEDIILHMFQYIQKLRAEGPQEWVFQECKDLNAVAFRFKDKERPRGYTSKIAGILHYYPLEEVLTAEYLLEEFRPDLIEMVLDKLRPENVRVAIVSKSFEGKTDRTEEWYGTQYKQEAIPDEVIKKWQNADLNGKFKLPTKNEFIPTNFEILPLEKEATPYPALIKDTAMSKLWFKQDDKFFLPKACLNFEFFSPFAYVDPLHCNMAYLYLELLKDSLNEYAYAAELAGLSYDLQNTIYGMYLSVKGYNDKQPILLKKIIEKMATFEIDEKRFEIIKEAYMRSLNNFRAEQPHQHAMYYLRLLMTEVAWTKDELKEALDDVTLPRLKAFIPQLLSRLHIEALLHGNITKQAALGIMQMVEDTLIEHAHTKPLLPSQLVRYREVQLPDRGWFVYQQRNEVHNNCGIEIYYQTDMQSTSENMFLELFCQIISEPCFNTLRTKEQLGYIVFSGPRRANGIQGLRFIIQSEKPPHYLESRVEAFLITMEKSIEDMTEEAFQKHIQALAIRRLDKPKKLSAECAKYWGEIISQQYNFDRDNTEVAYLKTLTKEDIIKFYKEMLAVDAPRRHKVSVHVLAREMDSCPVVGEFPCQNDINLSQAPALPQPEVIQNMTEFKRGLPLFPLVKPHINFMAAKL
# INS1 = assay: beta cell apoptosis inhibitors, cytokine rescue, dose response, luminescence, retest (AID 449756); format: functional, cell-based; conditions: Rattus norvegicus;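 note: cell death triggered by IL-1 beta plus TNF-alpha plus IFN-gamma mixture; protective hits raise ATP signal compared with cytokine alone wells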
# HEK293 [7] = assay: HEK cell cytotoxicity by LDH release, dose response, cytotoxicity control for IDE activator project, fluorescence, HEK cells (AID 588440); format: functional, cell-based; conditions: Homo sapiens;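 note: cytotoxicity by LDH release measuring loss of membrane integrity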
# HEK293 [8] = assay: optical interference in Abeta FP readout, dose response, artefact control for IDE activator project, biochemical, fluorescence polarization (AID 588442); format: functional, cell-based; conditions: Homo sapiens
# [9] = target: T3, Rac GTPase-activating protein 1 (Homo sapiens, UniProt Q9H0H5); assay: MgcRacGAP GTPase-activating activity inhibitors, confirmation, biochemical, ADP Hunter fluorescence, primary and confirmatory (AID 624330); format: functional
# T3 sequence (Q9H0H5 whole entry): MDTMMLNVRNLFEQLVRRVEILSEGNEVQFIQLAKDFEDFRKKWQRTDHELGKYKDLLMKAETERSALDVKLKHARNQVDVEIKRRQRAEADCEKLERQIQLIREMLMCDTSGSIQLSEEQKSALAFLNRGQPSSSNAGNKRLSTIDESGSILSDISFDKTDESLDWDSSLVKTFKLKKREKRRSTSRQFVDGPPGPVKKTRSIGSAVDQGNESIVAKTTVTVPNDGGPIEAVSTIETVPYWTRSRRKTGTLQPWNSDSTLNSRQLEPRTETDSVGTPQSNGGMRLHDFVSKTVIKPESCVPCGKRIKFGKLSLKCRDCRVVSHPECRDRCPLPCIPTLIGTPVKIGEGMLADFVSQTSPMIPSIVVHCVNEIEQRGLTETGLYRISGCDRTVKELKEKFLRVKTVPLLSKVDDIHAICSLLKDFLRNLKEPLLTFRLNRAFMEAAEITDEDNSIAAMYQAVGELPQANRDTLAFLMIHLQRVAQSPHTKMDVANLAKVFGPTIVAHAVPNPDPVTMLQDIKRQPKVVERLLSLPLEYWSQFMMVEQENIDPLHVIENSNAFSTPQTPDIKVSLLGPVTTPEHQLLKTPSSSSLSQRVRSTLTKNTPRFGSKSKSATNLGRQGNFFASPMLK
# Sequence of 3-phosphoinositide-dependent protein kinase 1 (O15530 whole entry): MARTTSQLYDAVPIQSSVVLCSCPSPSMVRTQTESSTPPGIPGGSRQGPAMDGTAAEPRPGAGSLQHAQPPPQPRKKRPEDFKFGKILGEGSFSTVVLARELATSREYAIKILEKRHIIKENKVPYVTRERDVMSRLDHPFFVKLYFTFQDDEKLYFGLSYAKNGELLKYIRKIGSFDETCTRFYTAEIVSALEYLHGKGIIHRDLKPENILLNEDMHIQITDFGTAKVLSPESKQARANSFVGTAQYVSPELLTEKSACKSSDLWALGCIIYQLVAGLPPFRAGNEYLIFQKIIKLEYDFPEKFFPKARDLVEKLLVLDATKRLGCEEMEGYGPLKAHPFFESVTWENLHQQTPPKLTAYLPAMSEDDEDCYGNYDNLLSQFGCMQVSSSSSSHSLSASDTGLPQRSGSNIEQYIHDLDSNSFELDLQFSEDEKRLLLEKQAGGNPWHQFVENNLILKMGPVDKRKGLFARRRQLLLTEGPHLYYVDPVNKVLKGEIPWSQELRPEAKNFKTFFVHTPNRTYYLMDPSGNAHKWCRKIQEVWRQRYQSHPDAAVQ
# Sequence of Proto-oncogene tyrosine-protein kinase Src (P12931 2-536 limits assumed): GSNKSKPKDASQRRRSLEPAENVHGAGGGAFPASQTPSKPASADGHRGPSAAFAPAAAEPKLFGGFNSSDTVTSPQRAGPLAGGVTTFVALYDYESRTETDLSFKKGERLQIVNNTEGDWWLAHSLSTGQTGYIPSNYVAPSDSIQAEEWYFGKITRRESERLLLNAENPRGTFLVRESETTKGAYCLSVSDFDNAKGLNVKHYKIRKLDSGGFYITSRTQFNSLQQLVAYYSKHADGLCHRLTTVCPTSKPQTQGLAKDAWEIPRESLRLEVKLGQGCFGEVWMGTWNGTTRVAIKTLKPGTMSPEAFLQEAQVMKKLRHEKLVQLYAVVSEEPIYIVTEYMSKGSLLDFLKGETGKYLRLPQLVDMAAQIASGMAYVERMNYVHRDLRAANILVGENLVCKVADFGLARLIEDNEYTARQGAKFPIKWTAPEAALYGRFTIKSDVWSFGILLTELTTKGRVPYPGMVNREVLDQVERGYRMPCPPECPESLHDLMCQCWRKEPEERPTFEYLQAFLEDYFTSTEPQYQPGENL
# Sequence of Non-receptor tyrosine-protein kinase TYK2 (P29597 whole entry): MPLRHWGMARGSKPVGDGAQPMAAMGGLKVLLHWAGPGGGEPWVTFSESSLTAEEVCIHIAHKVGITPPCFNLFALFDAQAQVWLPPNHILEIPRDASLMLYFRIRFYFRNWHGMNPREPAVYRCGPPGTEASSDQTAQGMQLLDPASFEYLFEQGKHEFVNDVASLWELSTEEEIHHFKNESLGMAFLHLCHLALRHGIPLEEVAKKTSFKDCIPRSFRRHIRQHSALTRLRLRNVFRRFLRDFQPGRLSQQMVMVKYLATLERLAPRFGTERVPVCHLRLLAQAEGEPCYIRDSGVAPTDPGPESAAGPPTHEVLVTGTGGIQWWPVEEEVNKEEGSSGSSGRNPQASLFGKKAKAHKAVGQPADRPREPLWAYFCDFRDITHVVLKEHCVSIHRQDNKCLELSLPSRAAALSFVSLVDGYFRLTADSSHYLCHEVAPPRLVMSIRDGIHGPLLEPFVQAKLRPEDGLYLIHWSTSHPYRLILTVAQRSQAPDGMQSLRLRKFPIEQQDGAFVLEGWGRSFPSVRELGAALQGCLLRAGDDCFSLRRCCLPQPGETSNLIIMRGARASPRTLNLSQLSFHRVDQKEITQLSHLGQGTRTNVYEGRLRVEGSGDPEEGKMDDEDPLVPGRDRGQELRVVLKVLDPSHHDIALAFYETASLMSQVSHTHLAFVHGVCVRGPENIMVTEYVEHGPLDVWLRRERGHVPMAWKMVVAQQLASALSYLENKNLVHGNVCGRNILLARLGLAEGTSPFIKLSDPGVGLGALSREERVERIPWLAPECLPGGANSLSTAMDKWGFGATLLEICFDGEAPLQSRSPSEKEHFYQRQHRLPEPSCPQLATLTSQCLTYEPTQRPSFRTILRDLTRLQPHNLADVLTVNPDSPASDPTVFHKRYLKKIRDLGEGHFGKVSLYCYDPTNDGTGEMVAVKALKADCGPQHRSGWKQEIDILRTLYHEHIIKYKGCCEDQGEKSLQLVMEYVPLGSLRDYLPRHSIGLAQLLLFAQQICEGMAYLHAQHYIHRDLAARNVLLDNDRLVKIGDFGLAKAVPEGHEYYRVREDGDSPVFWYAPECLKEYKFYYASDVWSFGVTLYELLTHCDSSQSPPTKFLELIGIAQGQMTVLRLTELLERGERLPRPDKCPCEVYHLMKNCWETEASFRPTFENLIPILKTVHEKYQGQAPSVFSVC
# Sequence of Cyclin-dependent kinase 1 (P06493 whole entry): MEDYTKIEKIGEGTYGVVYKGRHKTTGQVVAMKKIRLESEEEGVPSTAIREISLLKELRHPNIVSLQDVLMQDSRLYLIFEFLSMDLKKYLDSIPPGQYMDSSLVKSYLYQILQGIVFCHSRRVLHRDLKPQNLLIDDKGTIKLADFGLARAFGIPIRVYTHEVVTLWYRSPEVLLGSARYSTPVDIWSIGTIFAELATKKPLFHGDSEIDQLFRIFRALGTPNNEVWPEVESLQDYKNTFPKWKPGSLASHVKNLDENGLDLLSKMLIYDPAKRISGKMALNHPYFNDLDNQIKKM
# Sequence of Serine/threonine-protein kinase PLK3 (Q9H4B4 whole entry): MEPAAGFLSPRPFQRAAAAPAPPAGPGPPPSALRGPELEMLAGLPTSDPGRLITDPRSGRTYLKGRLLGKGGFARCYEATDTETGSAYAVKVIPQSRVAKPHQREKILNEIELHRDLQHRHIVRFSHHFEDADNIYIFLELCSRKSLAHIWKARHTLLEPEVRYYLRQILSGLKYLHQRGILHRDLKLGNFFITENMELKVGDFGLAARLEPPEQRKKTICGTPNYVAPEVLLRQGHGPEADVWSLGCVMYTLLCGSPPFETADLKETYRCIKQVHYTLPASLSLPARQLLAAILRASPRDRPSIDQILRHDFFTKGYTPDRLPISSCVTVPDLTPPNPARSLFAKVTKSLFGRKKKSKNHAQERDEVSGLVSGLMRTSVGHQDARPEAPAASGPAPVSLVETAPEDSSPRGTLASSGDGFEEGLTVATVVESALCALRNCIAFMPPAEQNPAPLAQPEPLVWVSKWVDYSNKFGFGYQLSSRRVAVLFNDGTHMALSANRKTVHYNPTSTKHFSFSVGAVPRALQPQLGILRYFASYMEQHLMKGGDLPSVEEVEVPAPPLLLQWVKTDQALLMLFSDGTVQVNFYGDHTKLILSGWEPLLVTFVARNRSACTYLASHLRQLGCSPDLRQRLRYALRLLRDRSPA
# Sequence of Inhibitor of nuclear factor kappa-B kinase subunit alpha (O15111 whole entry): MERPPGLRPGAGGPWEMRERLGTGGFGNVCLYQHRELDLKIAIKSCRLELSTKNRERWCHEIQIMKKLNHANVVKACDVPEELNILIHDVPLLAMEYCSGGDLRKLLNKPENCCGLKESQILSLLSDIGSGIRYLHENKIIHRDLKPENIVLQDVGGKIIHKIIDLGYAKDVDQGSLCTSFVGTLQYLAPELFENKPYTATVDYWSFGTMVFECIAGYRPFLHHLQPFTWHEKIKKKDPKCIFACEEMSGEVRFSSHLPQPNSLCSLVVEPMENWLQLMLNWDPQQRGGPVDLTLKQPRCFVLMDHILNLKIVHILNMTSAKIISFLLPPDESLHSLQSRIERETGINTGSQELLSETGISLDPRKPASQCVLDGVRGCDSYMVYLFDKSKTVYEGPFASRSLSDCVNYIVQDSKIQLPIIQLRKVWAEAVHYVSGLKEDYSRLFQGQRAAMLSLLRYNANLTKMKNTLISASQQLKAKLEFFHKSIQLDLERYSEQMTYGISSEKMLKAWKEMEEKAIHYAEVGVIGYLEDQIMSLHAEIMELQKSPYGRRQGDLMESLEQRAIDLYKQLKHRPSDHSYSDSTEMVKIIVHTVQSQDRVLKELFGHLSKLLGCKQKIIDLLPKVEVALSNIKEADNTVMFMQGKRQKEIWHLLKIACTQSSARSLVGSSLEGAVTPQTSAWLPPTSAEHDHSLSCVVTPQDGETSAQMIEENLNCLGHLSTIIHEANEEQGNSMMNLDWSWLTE
SMILES,Ki [1],Ki [2],Ki [3],Ki [4],Ki [5],Ki [6],AC50 (CAAX prenyl protease 2),EC50 (Insulin-degrading enzyme),AC50 (INS1),IC50 (HEK293 [7]),EC50 (HEK293 [8]),IC50 [9]
CC(=NNC(=N)N)c1cc(NC(=O)NCCCCCCNC(=O)Nc2cc(C(C)=NNC(=N)N)cc(C(C)=NNC(=N)N)c2)cc(C(C)=NNC(=N)N)c1,6.31 µM (active),2 µM (active),> 5.01 µM (inactive),0.501 µM (active),0.631 µM (active),> 3.98 µM (inactive),,,,,,
Cc1cc(N)c2cc(NC(=O)/C=C/c3ccccc3Cl)ccc2n1,,,,,,,6.78 µM (active),> 54.7 µM (inactive),3.83 µM (active),2.63 µM (active),> 54.7 µM (inactive),23.7 µM (active)

# Reference: ChEMBL document CHEMBL1201862, “PubChem BioAssay data set” (2004)
